From PMC11668715 (AMB Express, 2024)
Blank lines part the entries; values can stand above or below the compound they belong to.

Legend:
MRSA ATCC 43,300 [1] = assay: Time-killing assay of the synergistical combinations; format: cell-based, S. aureus; conditions: 1/4×MIC of PVB and 1/4×MIC of the antibiotic
MRSA ATCC 43,300 [2] = assay: Checkerboard dilution assay; format: cell-based, S. aureus; set-up: MICalone / MICcombined: unit not given beside the values; conditions: for MICalone: drug alone, checkerboard; for MICalone / MICcombined: MRSA ATCC 43,300; for Fold change: MIC combined vs alone
[3] = system: MRSA and S. epidermidis persister cells; assay: Persister cells killing assay; format: cell-based, S. aureus and S. epidermidis; conditions: 64 µg/mL
[4] = group 15: PVB combined with OXA
[5] = group 11: PVB combined with CAZ
[6] = group 20: PVB combined with TOB
[7] = group 21: PVB combined with SPC
[8] = group 19: PVB combined with KANA
[9] = group 12: PVB combined with AMP
[10] = group 17: PVB combined with AMK
[11] = group 18: PVB combined with GEN
[12] = group 16: PVB combined with CRO
[13] = group 14: PVB combined with CEF
[14] = group 13: PVB combined with CEZ

MICalone (MRSA ATCC 43,300 [2]): 16
MICcombined (MRSA ATCC 43,300 [2]; [4]): 2
Compound: Cc1onc(-c2ccccc2)c1C(=O)N[C@@H]1C(=O)N2[C@@H]1SC(C)(C)[C@@H]2C(=O)O [OXA, oxacillin]
bactericidal activity of combination with PVB (time-killing) (MRSA ATCC 43,300 [1]): synergistical bactericidal activity
FICI (MRSA ATCC 43,300 [2]; group 15: PVB + OXA): 0.25
Fold change (MRSA ATCC 43,300 [2]; [4]): 0.125

MICalone (MRSA ATCC 43,300 [2]): 0.125
MICcombined (MRSA ATCC 43,300 [2]; group 5: PVB combined with LEV): 0.125
Compound: C[C@H]1COc2c(N3CCN(C)CC3)c(F)cc3c(=O)c(C(=O)O)cn1c23 [LEV, levofloxacin]
FICI (MRSA ATCC 43,300 [2]; group 5: PVB + LEV): 2
Fold change (MRSA ATCC 43,300 [2]; group 5: PVB combined with LEV): 1

MICalone (MRSA ATCC 43,300 [2]): 64
MICcombined (MRSA ATCC 43,300 [2]; [6]): 256
Compound: NC[C@H]1O[C@H](O[C@H]2[C@H](O)[C@@H](O[C@H]3O[C@H](CO)[C@@H](O)[C@H](N)[C@H]3O)[C@H](N)C[C@@H]2N)[C@H](N)C[C@@H]1O [TOB, tobramycin]
FICI (MRSA ATCC 43,300 [2]; group 20: PVB + TOB): 5
Fold change (MRSA ATCC 43,300 [2]; [6]): 4

MICalone (MRSA ATCC 43,300 [2]): 128
MICcombined (MRSA ATCC 43,300 [2]; [7]): 128
Compound: CN[C@@H]1[C@H](O)[C@H](NC)[C@H]2O[C@@]3(O)C(=O)C[C@@H](C)O[C@H]3O[C@@H]2[C@H]1O [SPC, spectinomycin]
FICI (MRSA ATCC 43,300 [2]; group 21: PVB + SPC): 2
Fold change (MRSA ATCC 43,300 [2]; [7]): 1

MICalone (MRSA ATCC 43,300 [2]): 2
MICcombined (MRSA ATCC 43,300 [2]; group 8: PVB combined with LZD): 2
Compound: CC(=O)NC[C@H]1CN(c2ccc(N3CCOCC3)c(F)c2)C(=O)O1 [LZD, linezolid]
FICI (MRSA ATCC 43,300 [2]; group 8: PVB + LZD): 2
Fold change (MRSA ATCC 43,300 [2]; group 8: PVB combined with LZD): 1

MICalone (MRSA ATCC 43,300 [2]): 1
MICcombined (MRSA ATCC 43,300 [2]; group 9: PVB combined with VAN): 1
Compound: CN[C@H](CC(C)C)C(=O)N[C@H]1C(=O)N[C@@H](CC(N)=O)C(=O)N[C@H]2C(=O)N[C@H]3C(=O)N[C@H](C(=O)N[C@H](C(=O)O)c4cc(O)cc(O)c4-c4cc3ccc4O)[C@H](O)c3ccc(c(Cl)c3)Oc3cc2cc(c3O[C@@H]2O[C@H](CO)[C@@H](O)[C@H](O)[C@H]2O[C@H]2C[C@](C)(N)[C@H](O)[C@H](C)O2)Oc2ccc(cc2Cl)[C@H]1O [VAN, vancomycin]
persister cells killing [3]: resistant
FICI (MRSA ATCC 43,300 [2]; group 9: PVB + VAN): 2
Fold change (MRSA ATCC 43,300 [2]; group 9: PVB combined with VAN): 1

MICalone (MRSA ATCC 43,300 [2]): 16
MICcombined (MRSA ATCC 43,300 [2]; [11]): 16
Compound: gentamycin
FICI (MRSA ATCC 43,300 [2]; group 18: PVB + GEN): 2
Outcome (MRSA ATCC 43,300 [2]; group 18: PVB + GEN): indifference (an indifference effect was defined as 1 < FICI ≤ 4)
Fold change (MRSA ATCC 43,300 [2]; [11]): 1

MICalone (MRSA ATCC 43,300 [2]): 2
MICcombined (MRSA ATCC 43,300 [2]; group 1: PVB combined with TET): 2
Compound: CN(C)[C@@H]1C(O)=C(C(N)=O)C(=O)[C@@]2(O)C(O)=C3C(=O)c4c(O)cccc4[C@@](C)(O)[C@H]3C[C@@H]12 [TET, tetracycline]
FICI (MRSA ATCC 43,300 [2]; group 1: PVB + TET): 3
Fold change (MRSA ATCC 43,300 [2]; group 1: PVB combined with TET): 1

Further lines, the compound ahead of its results:

Compound: CC(C)(O/N=C(\C(=O)N[C@@H]1C(=O)N2C(C(=O)[O-])=C(C[n+]3ccccc3)CS[C@H]12)c1csc(N)n1)C(=O)O [CAZ, ceftazidime]
MICalone (MRSA ATCC 43,300 [2]): 32
FICI (MRSA ATCC 43,300 [2]; group 11: PVB + CAZ): 0.75
Fold change (MRSA ATCC 43,300 [2]; [5]): 0.25
MICcombined (MRSA ATCC 43,300 [2]; [5]): 8

Compound: CCCCCCCCCC(=O)N[C@@H](Cc1c[nH]c2ccccc12)C(=O)N[C@H](CC(N)=O)C(=O)N[C@@H](CC(=O)O)C(=O)N[C@@H]1C(=O)NCC(=O)N[C@@H](CCCN)C(=O)N[C@@H](CC(=O)O)C(=O)N[C@H](C)C(=O)N[C@@H](CC(=O)O)C(=O)NCC(=O)N[C@H](CO)C(=O)N[C@@H]([C@H](C)CC(=O)O)C(=O)N[C@@H](CC(=O)c2ccccc2N)C(=O)O[C@@H]1C [DAP, daptomycin]
MICalone (MRSA ATCC 43,300 [2]): 0.25
FICI (MRSA ATCC 43,300 [2]; group 6: PVB + DAP): 1
Fold change (MRSA ATCC 43,300 [2]; group 6: PVB combined with DAP): 0.5
MICcombined (MRSA ATCC 43,300 [2]; group 6: PVB combined with DAP): 0.125

Compound: NC[C@H]1O[C@H](O[C@H]2[C@H](O)[C@@H](O[C@H]3O[C@H](CO)[C@@H](O)[C@H](N)[C@H]3O)[C@H](N)C[C@@H]2N)[C@H](O)[C@@H](O)[C@@H]1O [KANA, kanamycin]
MICalone (MRSA ATCC 43,300 [2]): 256
FICI (MRSA ATCC 43,300 [2]; group 19: PVB + KANA): 4.5
Outcome (MRSA ATCC 43,300 [2]; group 19: PVB + KANA): antagonism (an antagonism effect was defined as FICI > 4)
Fold change (MRSA ATCC 43,300 [2]; [8]): 4
MICcombined (MRSA ATCC 43,300 [2]; [8]): 1024

Compound: CC1(C)S[C@@H]2[C@H](NC(=O)[C@H](N)c3ccccc3)C(=O)N2[C@H]1C(=O)O [AMP, ampicillin]
bactericidal activity of combination with PVB (time-killing) (MRSA ATCC 43,300 [1]): synergistical bactericidal activity
MICalone (MRSA ATCC 43,300 [2]): 16
FICI (MRSA ATCC 43,300 [2]; group 12: PVB + AMP): 0.5
Fold change (MRSA ATCC 43,300 [2]; [9]): 0.25
MICcombined (MRSA ATCC 43,300 [2]; [9]): 4

Compound: CC[C@H]1OC(=O)[C@H](C)[C@@H](O[C@H]2C[C@@](C)(OC)[C@@H](O)[C@H](C)O2)[C@H](C)[C@@H](O[C@@H]2O[C@H](C)C[C@H](N(C)C)[C@H]2O)[C@](C)(O)C[C@@H](C)CN(C)[C@H](C)[C@@H](O)[C@]1(C)O [AZI, azithromycin]
MICalone (MRSA ATCC 43,300 [2]): > 256
FICI (MRSA ATCC 43,300 [2]; group 4: PVB + AZI): 2
Fold change (MRSA ATCC 43,300 [2]; group 4: PVB combined with AZI): 1
MICcombined (MRSA ATCC 43,300 [2]; group 4: PVB combined with AZI): > 256

Compound: C[C@H]1c2cccc(O)c2C(=O)C2=C(O)[C@]3(O)C(=O)C(C(N)=O)=C(O)[C@@H](N(C)C)[C@@H]3[C@@H](O)[C@@H]21 [DOX, doxycycline]
MICalone (MRSA ATCC 43,300 [2]): 0.25
FICI (MRSA ATCC 43,300 [2]; group 2: PVB + DOX): 2
Fold change (MRSA ATCC 43,300 [2]; group 2: PVB combined with DOX): 1
MICcombined (MRSA ATCC 43,300 [2]; group 2: PVB combined with DOX): 0.25

Compound: NCC[C@H](O)C(=O)N[C@@H]1C[C@H](N)[C@@H](O[C@H]2O[C@H](CN)[C@@H](O)[C@H](O)[C@H]2O)[C@H](O)[C@H]1O[C@H]1O[C@H](CO)[C@@H](O)[C@H](N)[C@H]1O [AMK, amikacin]
MICalone (MRSA ATCC 43,300 [2]): 64
FICI (MRSA ATCC 43,300 [2]; group 17: PVB + AMK): > 2
Outcome (MRSA ATCC 43,300 [2]; group 17: PVB + AMK): indifference/antagonism
Fold change (MRSA ATCC 43,300 [2]; [10]): > 1
MICcombined (MRSA ATCC 43,300 [2]; [10]): > 64

Compound: penicillin
FICI (MRSA ATCC 43,300 [2]; group 10: PVB + P): 1.5
Outcome (MRSA ATCC 43,300 [2]; group 10: PVB + P): indifference (an indifference effect was defined as 1 < FICI ≤ 4)

Compound: CC[C@H]1OC(=O)[C@H](C)[C@@H](O[C@H]2C[C@@](C)(OC)[C@@H](O)[C@H](C)O2)[C@H](C)[C@@H](O[C@@H]2O[C@H](C)C[C@H](N(C)C)[C@H]2O)[C@](C)(O)C[C@@H](C)C(=O)[C@H](C)[C@@H](O)[C@]1(C)O [E, erythromycin]
FICI (MRSA ATCC 43,300 [2]; group 3: PVB + E): 2

Compound: C[C@@H]1O[C@@H]1P(=O)(O)O [FOS, fosfomycin]
MICalone (MRSA ATCC 43,300 [2]): 32
FICI (MRSA ATCC 43,300 [2]; group 7: PVB + FOS): 2
Fold change (MRSA ATCC 43,300 [2]; group 7: PVB combined with FOS): 1
MICcombined (MRSA ATCC 43,300 [2]; group 7: PVB combined with FOS): 32

Compound: CO/N=C(\C(=O)N[C@@H]1C(=O)N2C(C(=O)O)=C(CSc3nc(=O)c(=O)[nH]n3C)CS[C@H]12)c1csc(N)n1 [CRO, ceftriaxone]
MICalone (MRSA ATCC 43,300 [2]): 32
FICI (MRSA ATCC 43,300 [2]; group 16: PVB + CRO): 0.5625
Fold change (MRSA ATCC 43,300 [2]; [12]): 0.0625
MICcombined (MRSA ATCC 43,300 [2]; [12]): 2

Compound: CO/N=C(\C(=O)N[C@@H]1C(=O)N2C(C(=O)O)=C(COC(C)=O)CS[C@H]12)c1csc(N)n1 [CEF, cefotaxime]
bactericidal activity of combination with PVB (time-killing) (MRSA ATCC 43,300 [1]): synergistical bactericidal activity
MICalone (MRSA ATCC 43,300 [2]): 2
Fold change (MRSA ATCC 43,300 [2]; [13]): 0.25
MICcombined (MRSA ATCC 43,300 [2]; [13]): 0.5

Compound: Cc1nnc(SCC2=C(C(=O)O)N3C(=O)[C@@H](NC(=O)Cn4cnnn4)[C@H]3SC2)s1 [CEZ, cefazolin]
MICalone (MRSA ATCC 43,300 [2]): 16
FICI (MRSA ATCC 43,300 [2]; group 13: PVB + CEZ): 0.5625
Fold change (MRSA ATCC 43,300 [2]; [14]): 0.5
MICcombined (MRSA ATCC 43,300 [2]; [14]): 8
